Source: a melting point compilation (Tetko et al.)

melting point [°C] | SMILES
169 to 171 | Cc1cc2ncn(C(C)c3ccccc3)c2cc1C (centres undefined)
84 to 86 | CC(O)Cc1nc2ccccc2s1 (centres undefined)
116 to 118 | CCC(=O)Nc1cccc(N)c1C
81 to 83 | COc1ccccc1C(C)=CC(=O)O
179 to 181 | O=C(O)c1ccn(-c2ccc(Cl)cc2Cl)n1
210 to 212 | Nc1cc(S(=O)(=O)N2CCOCC2)ccc1N1CCOCC1
168 to 170 | O=C(Cn1c(Cl)nc2ccccc21)c1ccccc1
171 to 173 | NC(=O)Nc1ccc(Br)cc1C(=O)O
117 to 119 | NNC(=O)C(=O)N1CCCC1
140 to 142 | Nc1ccn(CCc2ccncc2)n1
128 to 130 | CC(C(=O)O)c1ccc(N(C)C)cc1 (centres undefined)
68 to 72 | Cc1sc2nc(CN3CCCC3)nc(Cl)c2c1C
85 to 87 | CC(C)N1C(=O)CNCC1(C)C
48 to 50 | COC(=O)c1cc(S(=O)(=O)Cl)cnc1Cl
167 to 169 | Cc1cc(Oc2ccccc2)c2cc([N+](=O)[O-])ccc2n1
229 to 231 | Cc1ccnc(O)c1C(=O)O
119 to 121 | NS(=O)(=O)CC(=O)O
112 to 114 | Cn1cc(Br)cc1C(=O)NC1CC1
124 to 126 | Clc1cc2c(cc1Br)OCCN2
164 to 165 | CN(CC(=O)Nc1ccc(Cl)c(C(F)(F)F)c1)C(=O)CCl
136 to 138 | Cc1ccc(S(=O)(=O)OC2C=CS(=O)(=O)C2)cc1 (centres undefined)
91 to 93 | OC1CCOc2ccc(Br)cc21 (centres undefined)
128 to 130 | O=C(CCl)NCc1ccc(C(=O)N2CCCC2)cc1
111 to 113 | c1cnc2c(c1)NCCO2
185 to 187 | CC(C)(C)c1ncsc1C(=O)O
110 to 112 | COCCC(=O)Nc1ccc(F)cc1C(=O)O

melting point [°C] | SMILES
69 to 71 | CCOC(C)c1ncc[nH]1 (centres undefined)
177 to 179 | OCc1c(Cl)nc2ccccn12
227 to 229 | CC1(c2cc(F)ccc2F)NC(=O)NC1=O (centres undefined)
139 to 141 | O=C(O)c1cnc(C2CCCO2)s1 (centres undefined)
42 to 44 | CNC(=O)c1cccc(Cl)n1
173 to 175 | CC1CC1C(=O)Nc1ccc(F)cc1C(=O)O (centres undefined)
55 to 57 | CC(=O)c1ccccc1NC(=O)CCCCl
107 to 109 | CC(C(=O)O)=C1CCCC1
84 to 86 | C=CCn1c(SCCCCCCCCCCCC)nc2scc(-c3ccccc3)c2c1=O
170 to 172 | Cc1cc(C(=O)O)c(C)n1Cc1ccco1
165 to 167 | CN1CCC(Nc2ccc3cn[nH]c3c2)CC1
145 to 147 | CN1C(=O)CC(C(=O)O)C1c1ccc(C(F)(F)F)cc1 (centres undefined)
232 to 234 | CNC(=O)c1cccc(C(=O)O)c1
99 to 101 | Nc1ccnc(Sc2ccccn2)c1
29 to 31 | O=S(=O)(Cl)c1ccc(Br)c(C(F)(F)F)c1
115 to 116 | CC(C)c1ccccc1Nc1nc2ccccc2s1
219 to 221 | Clc1ccc(-c2nnc(Cl)c3ccccc23)cc1Cl
194 to 196 | Nc1nnc(-c2ccc(Br)cc2F)s1
142 to 144 | Cc1ccc(-c2noc(CCC(=O)O)n2)cc1F
61 to 63 | COC(=O)c1cc(C)c(C)c(S(=O)(=O)Cl)c1
218 to 220 | Cc1cc(S(=O)(=O)Nc2sc3c(c2C(N)=O)CCC(C)C3)ccc1Br (centres undefined)
174 to 176 | O=C(O)CNC(=O)c1ccccc1I
173 to 177 | O=S(=O)(c1ccc2c(c1)CCN2)N1CCOCC1
64 to 66 | CC(O)Cc1ccc2ccccc2n1 (centres undefined)
91 to 93 | CSc1c(F)cc(N)cc1F
244 to 246 | NC1(C(=O)O)CCOC1 (centres undefined)

melting point [°C] | SMILES
67 to 69 | C=C(CC(=O)OC)C(=O)O
104 to 106 | CNS(=O)(=O)c1ccc(C(C)N)cc1 (centres undefined)
154 to 156 | COc1ccc(NC(=S)NN)cn1
112 to 114 | Nc1cc(-n2nnnc2C2CC2)ccc1F
201 to 203 | Cc1ccc(NC(=O)Nc2ccccc2)cc1N
177 to 179 | O=S1(=O)CCN(S(=O)(=O)Cl)CC1
66 to 68 | O=C(O)CCCSc1ccccc1
134 to 136 | CC(C(=O)O)N1CCCCC1=O (centres undefined)
94 to 96 | Fc1ccc(CBr)c2ncccc12
123 to 125 | CC(C)C(Br)C(=O)Nc1ccccc1C(F)(F)F (centres undefined)
43 to 45 | Cc1cc(C)nc(C#N)c1
144 to 146 | CC(C)Cc1ccc(C(=O)O)cc1
88 to 90 | Cc1cccc(C(=O)N2CCSCC2)c1O
41 to 43 | COc1ccc(COCC(=O)O)cc1
179 to 181 | Cc1nnnn1-c1ccc(F)c(NC(=O)CCl)c1
109 to 111 | O=C1C=C2NCCC=C2O1
205 to 207 | O=C(O)c1cc(S(=O)(=O)Nc2ccc(F)cc2)ccc1Cl
127 to 129 | Cc1cc(C)cc(Nc2nnc(SC(C)C(=O)O)s2)c1 (centres undefined)
149 to 151 | NC(=O)NCc1ccccc1Cl
125 to 127 | O=C(O)CCNC(=O)C1CCCCC1
89 to 91 | CN(CCO)CCC(=O)O
195 to 197 | CC(=O)c1c(C)[nH]c2ccccc12
84 to 86 | NCCNS(=O)(=O)c1cccc(Cl)c1
204 to 206 | Cc1cc(C(=O)O)c(C)n1-c1ccc2c(c1)OCCO2
134 to 136 | CCc1sc(N)c(C(N)=O)c1C
121 to 123 | O=S(=O)(Cl)c1cccc2ncccc12

melting point [°C] | SMILES
170 to 172 | CC(=O)Nc1ccc(C)cc1O
374 to 376 | O=C(O)c1cc(F)cc2[nH]c(S)nc12
53 to 55 | Sc1nnc(CCCc2ccccc2)o1
184 to 186 | Cc1cc(NC(=O)C2CC2)sc1C(=O)O
177 to 179 | O=C(O)c1cc2ccccc2c(OCC2CC2)n1
130 to 132 | O=C(CBr)c1ccc(N2CCCC2=O)cc1
111 to 113 | O=C1NCCNC1c1cccs1 (centres undefined)
99 to 101 | COc1ccc(N)cc1OCCO
169 to 171 | CC(C)(C)OC(=O)NN1CC(C(=O)O)CC1=O (centres undefined)
269 to 271 | Cc1nnc(-c2ccc(C(=O)O)cc2)n1C
55 to 57 | CC(C)(C)OC(=O)N1CCCc2cc(N)ccc21
73 to 75 | N#CC1(c2ccc3c(c2)OCO3)CC1
98 to 110 | Cc1cc(C(=O)CCl)c(C)n1-c1ccc2c(c1)OCO2
52 to 54 | c1cc(OCC2CO2)c2cc[nH]c2c1 (centres undefined)
79 to 81 | N#Cc1ccc(C=O)c(F)c1
171 to 173 | OC(c1ccccc1)C1CCNCC1 (centres undefined)
140 to 142 | O=C(O)CCc1csc2ccccc12
92 to 94 | N#CCc1cc(Cl)ccc1Cl
120 to 122 | Cc1cccc2nc(CCl)cc(=O)n12
301 to 303 | c1nc(N2CCOCC2)c2nc[nH]c2n1
152 to 154 | CCOc1ccc(S(N)(=O)=O)cc1
137 to 139 | N#CCS(=O)(=O)N1CCCCC1
97 to 99 | Nc1ccccc1-c1nnnn1C1CC1
141 to 143 | CNC(=O)c1cc(Oc2cc(N)ccc2C)ccn1

SMILES | melting point [°C]
OC1(Cc2ccc(F)cc2F)CC2CCC(C1)N2 (centres undefined) | 142 to 144
Nc1nc(Cl)ncc1[N+](=O)[O-] | 209 to 211
